{"source": "EPA's ToxValDB 9.5", "system": "Rattus norvegicus", "key": {"[1]": {"details": "developmental, duration: 14 days, oral, gavage, M/F, Hsd. Han: WIST, generation: F1, F1: Developmental: Bone: Skeletal Variations + F1: Developmental: Placenta: Placenta Weight, Absolute + F1: Developmental: Placenta: …"}, "[2]": {"details": "developmental, duration: 14 days, oral, gavage, M/F, Wistar Han, generation: F1, F1: Placenta: Placenta Weight, Absolute + F1: Whole Body: Body Weight, Fetal + F1: Whole Body: Fetal Skeletal Variations"}, "[3]": {"details": "reproduction developmental, duration: 14 days, oral, gavage, F, Hsd. Han: WIST, generation: P0, P0: Developmental: Uterus: Implantation + P0: Developmental: Uterus: Post-Implantation Loss + P0: Developmental: Uterus: Pre-Implantation …"}, "[4]": {"details": "reproduction developmental, duration: 14 days, oral, gavage, F, Wistar Han, generation: P0, P0: Kidney: Necropsy, Kidney Observation + P0: Small Intestine: Necropsy, Small Intestine Observation + P0: Stomach: Necropsy, Stomach …"}, "[5]": {"details": "short-term, duration: 4 weeks, inhalation, F, Wistar, Adrenal: Adrenal Cortex, Minimal Diffuse Hypertrophy + Blood: Calcium (CA), Blood + Blood: Chloride (CL), Blood + Blood: Inorganic …"}, "[6]": {"details": "short-term, duration: 4 weeks, inhalation, F, Wistar, Blood: Albumin/Globulin (A/G) Ratio + Blood: Globulin (G), Blood + Blood: Glucose (GLU), Blood + Blood: Potassium (K), Blood + Kidney: Urea…"}, "[7]": {"details": "short-term, duration: 4 weeks, inhalation, M, Wistar, Adrenal: Adrenal Cortex, Minimal Diffuse Hypertrophy + Blood: Calcium (CA), Blood + Blood: Total Protein (TP), Blood + Liver: Aspartate …"}, "[8]": {"details": "short-term, duration: 4 weeks, inhalation, M, Wistar, Blood: Chloride (CL), Blood + Blood: Glucose (GLU), Blood + Blood: Hematocrit (HCT) + Blood: Hemoglobin (HGB) + Blood: Red Blood Cell (RBC…"}, "[9]": {"details": "short-term, duration: 28 days, oral, gavage, F, Sprague-Dawley, Blood: Hematocrit (HCT) + Blood: Hemoglobin (HGB) + Blood: Red Blood Cell (RBC) + Blood: White Blood Cell (WBC) + Kidney: Total Protein (TP…"}, "[10]": {"details": "short-term, duration: 28 days, oral, gavage, F, Sprague-Dawley, Blood: Lymphocyte + Blood: Mean Corpuscular Volume (MCV) + Blood: Monocytes + Central Nervous System: Spontaneous Locomotion + Intestine: …"}, "[11]": {"details": "short-term, duration: 28 days, oral, gavage, F, Sprague-Dawley, Blood: Prothrombin Time (PT) + Renal: Albumin (A), Urine"}, "[12]": {"details": "short-term, duration: 28 days, oral, gavage, M, Sprague-Dawley, Blood: Hematocrit (HCT) + Blood: Hemoglobin (HGB) + Blood: White Blood Cell (WBC) + Central Nervous System: Spontaneous Locomotion + Hair/…"}, "[13]": {"details": "short-term, duration: 28 days, oral, gavage, M, Sprague-Dawley, Blood: Mean Cell Hemoglobin (MCH) + Blood: Mean Corpuscular Hemoglobin Concentration (MCHC) + Blood: Mean Corpuscular Volume (MCV) + Blood: …"}, "[14]": {"details": "short-term, duration: 28 days, oral, gavage, M, Sprague-Dawley, Hair/Fur: Alopecia + Lung: Respiration Rate"}}, "note": "“And” between values parts separate entries of the source, which are not always exact repeats. Identical values can stand only once."}
{"smiles": "C=C(C)C(=O)OCCC(F)(F)C(F)(F)C(F)(F)C(F)(F)C(F)(F)C(F)(F)F", "note": "[2-(Perfluorohexyl)ethyl methacrylate]", "values": [{"measurement": "LOAEL", "setting": "[1]", "result": 1000, "unit": "mg/kg-day"}, {"measurement": "NOAEL", "setting": "[1]", "result": 320, "unit": "mg/kg-day"}, {"measurement": "LEL", "setting": "[2]", "result": 1000, "unit": "mg/kg-day"}, {"measurement": "NEL", "setting": "[2]", "result": 320, "unit": "mg/kg-day"}, {"measurement": "NEL", "setting": "developmental, duration: 14 days, oral, gavage, M/F, Wistar Han, generation: F1, F1: Placenta: Placenta Weight, Relative + F1: Uterus: Fetuses, Dead + F1: Uterus: Fetuses, Live + F1: Whole Body: Fetal External …", "result": 1000, "unit": "mg/kg-day"}, {"measurement": "LOAEL", "setting": "[3]", "result": 1000, "unit": "mg/kg-day"}, {"measurement": "NOAEL", "setting": "[3]", "result": 320, "unit": "mg/kg-day"}, {"measurement": "NOAEL", "setting": "reproduction developmental, duration: 14 days, oral, gavage, F, Hsd. Han: WIST, generation: P0, P0: Reproductive: Ovary: Corpora Lutea", "result": 1000, "unit": "mg/kg-day"}, {"measurement": "LEL", "setting": "[4]", "result": 1000, "unit": "mg/kg-day"}, {"measurement": "NEL", "setting": "[4]", "result": 320, "unit": "mg/kg-day"}, {"measurement": "NEL", "setting": "reproduction developmental, duration: 14 days, oral, gavage, F, Wistar Han, generation: P0, P0: Ovary: Corpora Lutea + P0: Uterus: Implantation + P0: Uterus: Post-Implantation Loss + P0: Uterus: Pre-Implantation Loss + P0: Whole …", "result": 1000, "unit": "mg/kg-day"}, {"measurement": "NEL", "setting": "short-term, duration: 28 days, oral, gavage, F, Crl:CD(SD), Adrenal: Adrenal Gland Weight, Absolute + Adrenal: Adrenal Gland Weight, Absolute, Recovery + Adrenal: Adrenal Gland Weight, Relative + …", "result": 25, "unit": "mg/kg-day"}, {"measurement": "NEL", "setting": "short-term, duration: 28 days, oral, gavage, F, Crl:CD(SD), Liver: Liver Weight, Absolute + Liver: Liver Weight, Relative + Teeth: Decreased Iron Pigment, Ameloblasts (28 d)", "result": 5, "unit": "mg/kg-day"}, {"measurement": "LEL", "setting": "short-term, duration: 28 days, oral, gavage, F, Crl:CD(SD), Liver: Liver Weight, Absolute + Liver: Liver Weight, Relative + Teeth: Decreased Iron Pigment, Ameloblasts (28 d) + Teeth: Teeth, Mottled (…", "result": 25, "unit": "mg/kg-day"}, {"measurement": "NEL", "setting": "short-term, duration: 28 days, oral, gavage, M, Crl:CD(SD), Adrenal: Adrenal Gland Weight, Absolute + Adrenal: Adrenal Gland Weight, Absolute, Recovery + Adrenal: Adrenal Gland Weight, Relative + …", "result": 25, "unit": "mg/kg-day"}, {"measurement": "NEL", "setting": "short-term, duration: 28 days, oral, gavage, M, Crl:CD(SD), Kidney: Kidney Weight, Relative + Teeth: Decreased Iron Pigment, Ameloblasts (28 d)", "result": 5, "unit": "mg/kg-day"}, {"measurement": "LEL", "setting": "short-term, duration: 28 days, oral, gavage, M, Crl:CD(SD), Kidney: Kidney Weight, Relative + Teeth: Decreased Iron Pigment, Ameloblasts (28 d) + Teeth: Teeth, Mottled (42 d)", "result": 25, "unit": "mg/kg-day"}]}
{"smiles": "FC(F)(I)C(F)(F)C(F)(F)C(F)(F)C(F)(F)C(F)(F)I", "note": "[1,6-Diiodoperfluorohexane]", "values": [{"measurement": "LOAEL", "setting": "[5]", "result": 45.1, "unit": "mg/m3"}, {"measurement": "NOAEL", "setting": "[5]", "result": 14.4, "unit": "mg/m3"}, {"measurement": "NOAEL", "setting": "short-term, duration: 4 weeks, inhalation, F, Wistar, Adrenal: Adrenal Gland Weight, Relative + Basophils + Blood: Activated Partial Thromboplastin Time (APTT) + Blood: Mean Corpuscular …", "result": 45.1, "unit": "mg/m3"}, {"measurement": "LOAEL", "setting": "[6]", "result": 14.4, "unit": "mg/m3"}, {"measurement": "NOAEL", "setting": "[6]", "result": "4.48 mg/m3 and 4.49 mg/m3"}, {"measurement": "LOAEL", "setting": "short-term, duration: 4 weeks, inhalation, F, Wistar, Blood: Cholesterol (CHOL), Total, Blood + Blood: Hematocrit (HCT) + Blood: Hemoglobin (HGB) + Blood: Red Blood Cell (RBC) + Brain: Brain …", "result": "4.48 mg/m3 and 4.49 mg/m3"}, {"measurement": "LOAEL", "setting": "[7]", "result": 45.1, "unit": "mg/m3"}, {"measurement": "NOAEL", "setting": "[7]", "result": 14.4, "unit": "mg/m3"}, {"measurement": "LOAEL", "setting": "short-term, duration: 4 weeks, inhalation, M, Wistar, Adrenal: Adrenal Gland Weight, Relative + Blood: Globulin (G), Blood + Blood: Inorganic Phosphorous (PHOS), Blood + Blood: Reticulocytes + …", "result": "4.48 mg/m3 and 4.49 mg/m3"}, {"measurement": "NOAEL", "setting": "short-term, duration: 4 weeks, inhalation, M, Wistar, Basophils + Blood: Activated Partial Thromboplastin Time (APTT) + Blood: Albumin/Globulin (A/G) Ratio + Blood: Mean Corpuscular Hemoglobin (…", "result": 45.1, "unit": "mg/m3"}, {"measurement": "LOAEL", "setting": "[8]", "result": 14.4, "unit": "mg/m3"}, {"measurement": "NOAEL", "setting": "[8]", "result": "4.48 mg/m3 and 4.49 mg/m3"}, {"measurement": "NOAEL", "setting": "short-term, duration: 28 days, oral, gavage, F, Sprague-Dawley, Adrenal: Adrenal Gland Histopathology + Adrenal: Adrenal Gland Weight, Relative + Blood: Globulin (G) + Blood: Phosphorous (inorganic) (PHOS…", "result": 20, "unit": "mg/kg-day"}, {"measurement": "LOAEL", "setting": "short-term, duration: 28 days, oral, gavage, F, Sprague-Dawley, Blood: Activated Partial Thromboplastin Time (APTT) + Blood: Albumin/Globulin (A/G) Ratio + Blood: Mean Cell Hemoglobin (MCH) + Blood: Mean …", "result": 1, "unit": "mg/kg-day"}, {"measurement": "LOAEL", "setting": "[9]", "result": 3, "unit": "mg/kg-day"}, {"measurement": "NOAEL", "setting": "[9]", "result": 1, "unit": "mg/kg-day"}, {"measurement": "LOAEL", "setting": "[10]", "result": 10, "unit": "mg/kg-day"}, {"measurement": "NOAEL", "setting": "[10]", "result": 3, "unit": "mg/kg-day"}, {"measurement": "LOAEL", "setting": "[11]", "result": 20, "unit": "mg/kg-day"}, {"measurement": "NOAEL", "setting": "[11]", "result": 10, "unit": "mg/kg-day"}, {"measurement": "NOAEL", "setting": "short-term, duration: 28 days, oral, gavage, M, Sprague-Dawley, Adrenal: Adrenal Gland Histopathology + Blood: Globulin (G) + Blood: Lymphocyte + Blood: Monocytes + Blood: Platelet Count (PLT) + Blood: …", "result": 20, "unit": "mg/kg-day"}, {"measurement": "LOAEL", "setting": "short-term, duration: 28 days, oral, gavage, M, Sprague-Dawley, Adrenal: Adrenal Gland Weight, Relative + Blood: Activated Partial Thromboplastin Time (APTT) + Blood: Albumin/Globulin (A/G) Ratio + Brain…", "result": 1, "unit": "mg/kg-day"}, {"measurement": "LOAEL", "setting": "[12]", "result": 3, "unit": "mg/kg-day"}, {"measurement": "NOAEL", "setting": "[12]", "result": 1, "unit": "mg/kg-day"}, {"measurement": "LOAEL", "setting": "[13]", "result": 10, "unit": "mg/kg-day"}, {"measurement": "NOAEL", "setting": "[13]", "result": 3, "unit": "mg/kg-day"}, {"measurement": "LOAEL", "setting": "[14]", "result": 20, "unit": "mg/kg-day"}, {"measurement": "NOAEL", "setting": "[14]", "result": 10, "unit": "mg/kg-day"}]}
